# Molecular target: MAPK14 (human) (UniProt Q16539)
# Assay: Inhibition of MAPK14 Kinase Activity
# Conditions: THP.1 monocytic
# MAPK14 (human), sequence (Q16539 whole entry, looked up): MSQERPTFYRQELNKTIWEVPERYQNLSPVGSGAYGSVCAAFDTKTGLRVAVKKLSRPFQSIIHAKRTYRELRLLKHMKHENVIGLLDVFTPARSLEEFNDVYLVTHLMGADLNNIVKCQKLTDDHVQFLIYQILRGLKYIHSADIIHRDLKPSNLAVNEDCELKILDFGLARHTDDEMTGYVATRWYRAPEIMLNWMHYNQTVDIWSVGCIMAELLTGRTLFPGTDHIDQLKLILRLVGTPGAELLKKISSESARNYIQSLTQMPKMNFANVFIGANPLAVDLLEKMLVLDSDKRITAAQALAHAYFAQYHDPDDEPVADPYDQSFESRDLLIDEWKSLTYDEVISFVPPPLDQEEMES
row,IC50 [nM],Structure (SMILES)
1,1000 to 25000,O=c1c(I)c(OCc2ccccc2)ccn1Cc1ccccc1
2,< 1000,CCOC(=O)c1cnc(Cn2c(C)cc(OCc3ccc(F)cc3F)c(Cl)c2=O)cn1
3,< 1000,Cc1cnc(Cn2c(C)cc(OCc3ccc(F)cc3F)c(Br)c2=O)cn1
4,1000 to 25000,Cc1cc(OCc2cccc(Cl)c2)c(Br)c(=O)n1Cc1ccccc1
5,1000 to 25000,Cc1c(CO)c(OCc2ccc(F)cc2F)c(Br)c(=O)n1-c1c(F)cccc1F
6,25000 to 100000,Cc1cc(OCc2ccccc2)cc(=O)n1Cc1ccccc1
7,< 1000,Cc1cc(OCc2ccc(F)cc2F)c(Cl)c(=O)n1-c1c(F)cccc1F
8,1000 to 25000,O=c1c(Br)c(OCc2ccc(C(F)(F)F)cc2)ccn1Cc1cccc(F)c1
9,1000 to 25000,CCOC(=O)CNc1nc(C)ncc1Cn1c(C)cc(OCc2ccc(F)cc2F)c(Br)c1=O
10,1000 to 25000,Cn1ccc(OCc2ccccc2)c(Br)c1=O
11,< 1000,O=c1c(Br)c(OCc2ccccc2)ccn1Cc1ccc(Cl)cc1
12,1000 to 25000,C#Cc1c(OCc2ccccc2)ccn(Cc2cccc(F)c2)c1=O
13,< 1000,CNC(=O)c1cccc(-n2c(C)cc(OCc3ccc(F)cc3F)c(Br)c2=O)c1
14,1000 to 25000,Cc1cc(OCc2ccc(F)cc2F)c(Br)c(=O)n1Cc1cccc(CNC(N)=O)c1
15,25000 to 100000,Cc1c(C#N)c(OCc2ccc(F)cc2F)c(Br)c(=O)n1-c1c(F)cccc1F
16,< 1000,C=CCn1c(C)cc(OCc2ccc(F)cc2F)c(Br)c1=O
17,< 1000,CNC(=O)c1ccc(C)c(-n2c(C)cc(OCc3ccc(F)cc3CNC(=O)OC)c(Br)c2=O)c1
18,< 1000,Cc1cc(OCc2ccc(F)cc2F)c(Br)c(=O)n1-c1cc(C(N)=O)ccc1F
19,< 1000,O=c1c(Cl)c(OCc2ccc(F)cc2F)cc(CO)n1-c1c(F)cccc1F
20,< 1000,Cc1cc(OCc2ccc(F)cc2F)c(Br)c(=O)n1Cc1ccc(CN(CCO)CCO)cc1
21,1000 to 25000,Cc1cc(OCc2ccc(F)cc2F)c(Br)c(=O)n1Cc1ccccc1CN
22,> 100000,CNC(=O)c1ccc(-n2c(C)cc(OCc3ccc(F)cc3F)c(Br)c2=O)cc1

row,IC50 [nM],Structure (SMILES)
1,< 1000,Cc1cc(OCc2ccc(F)cc2F)c(Br)c(=O)n1-c1cccc(C(=O)NCCCN)c1
2,< 1000,Cc1cc(OCc2ccc(F)cc2F)c(Br)c(=O)n1-c1cccc(C(=O)NC(C)C)c1
3,1000 to 25000,Cc1cc(OCc2ccc(F)cc2F)c(Br)c(=O)n1-c1cccc(CNC(=O)CO)c1
4,< 1000,Cc1cc(OCc2ccc(F)cc2F)c(Br)c(=O)n1-c1ccccc1C(F)(F)F
5,< 1000,Cc1cc(OCc2ccc(F)cc2F)c(Br)c(=O)n1Cc1ccc(C(=O)NCCCN)cc1
6,< 1000,O=c1c(Br)c(OCc2ccccc2)ccn1Cc1ccccc1F
7,1000 to 25000,C=CCNc1c(I)c(C)n(-c2c(F)cccc2F)c(=O)c1Br
8,1000 to 25000,COC(=O)NCc1cccc(-n2c(C)cc(OCc3ccc(F)cc3F)c(Br)c2=O)c1
9,< 1000,Cc1cc(OCc2ccc(F)cc2F)c(Br)c(=O)n1Cc1cnc(C(=O)N(C)C)cn1
10,1000 to 25000,Cc1c(I)c(NCc2ccccc2)c(Br)c(=O)n1-c1c(F)cccc1F
11,1000 to 25000,CCOC(=O)CCn1ccc(OCc2ccccc2)c(Br)c1=O
12,< 1000,Cc1cnc(Cn2c(C)cc(OCc3ccc(F)cc3F)c(Cl)c2=O)cn1
13,< 1000,Cc1cc(OCc2ccc(F)cc2F)c(Br)c(=O)n1Cc1ccc(CN2CCOCC2)cc1
14,25000 to 100000,O=c1c(C(F)(F)F)c(OCc2ccccc2)ccn1Cc1cccc(F)c1
15,1000 to 25000,Cc1cc(OCc2ccc(F)cc2F)c(Br)c(=O)n1Cc1ccnc(CN)n1
16,< 1000,Cc1cc(OCc2ccc(F)cc2F)c(Br)c(=O)n1Cc1ccc(C(=O)N(C)CCO)cc1
17,1000 to 25000,NCc1ccccc1Cn1ccc(OCc2ccccc2)c(Br)c1=O
18,< 1000,Cc1cccc(COc2ccn(Cc3cccc(F)c3)c(=O)c2Br)c1
19,1000 to 25000,Cc1cc(OCc2ccc(F)cc2F)c(Br)c(=O)n1-c1cccc(CN(C)C)c1
20,25000 to 100000,Cc1c(C(O)CO)c(OCc2ccc(F)cc2F)c(Br)c(=O)n1-c1c(F)cccc1F (centres undefined)
21,1000 to 25000,O=c1c(Br)c(OCc2ccccc2Cl)ccn1Cc1ccccc1

row,Structure (SMILES),IC50 [nM]
1,CN(C(=O)Oc1ccn(Cc2ccccc2)c(=O)c1Br)c1ccccc1,> 100000

# From the Kinase Knowledgebase extract (Sharma et al. 2016)
